Measured values as given in patent publication US9102701B2, “17-hydroxy-17-pentafluoroethyl-estra-4,9(10)-diene-11-ethynylphenyl derivatives, methods for the production thereof and use thereof for treating diseases” (Bayer Intellectual Property GmbH, priority 2009, dated 2015).
In brackets after ≈: the same amount, converted by molar mass. Values belong to the molecule of their own block, whether it stands above or below them.

Assays:
[1] = biological target: T1, human progesterone receptor B (Homo sapiens, UniProt P06401); experiment: Progesterone receptor-antagonistic action in stably transfected SK-N-MC cells, PR-B, MMTV-LUC reporter; assay type: cell-based; details: read-out: IC50 PR-B
T1 construct: expressed in transfected cells; host or cells: SK-N-MC human neuroblastoma cells, stably transfected with pRChPR-B-neo and pMMTV-LUC
T1 sequence (P06401 1-933): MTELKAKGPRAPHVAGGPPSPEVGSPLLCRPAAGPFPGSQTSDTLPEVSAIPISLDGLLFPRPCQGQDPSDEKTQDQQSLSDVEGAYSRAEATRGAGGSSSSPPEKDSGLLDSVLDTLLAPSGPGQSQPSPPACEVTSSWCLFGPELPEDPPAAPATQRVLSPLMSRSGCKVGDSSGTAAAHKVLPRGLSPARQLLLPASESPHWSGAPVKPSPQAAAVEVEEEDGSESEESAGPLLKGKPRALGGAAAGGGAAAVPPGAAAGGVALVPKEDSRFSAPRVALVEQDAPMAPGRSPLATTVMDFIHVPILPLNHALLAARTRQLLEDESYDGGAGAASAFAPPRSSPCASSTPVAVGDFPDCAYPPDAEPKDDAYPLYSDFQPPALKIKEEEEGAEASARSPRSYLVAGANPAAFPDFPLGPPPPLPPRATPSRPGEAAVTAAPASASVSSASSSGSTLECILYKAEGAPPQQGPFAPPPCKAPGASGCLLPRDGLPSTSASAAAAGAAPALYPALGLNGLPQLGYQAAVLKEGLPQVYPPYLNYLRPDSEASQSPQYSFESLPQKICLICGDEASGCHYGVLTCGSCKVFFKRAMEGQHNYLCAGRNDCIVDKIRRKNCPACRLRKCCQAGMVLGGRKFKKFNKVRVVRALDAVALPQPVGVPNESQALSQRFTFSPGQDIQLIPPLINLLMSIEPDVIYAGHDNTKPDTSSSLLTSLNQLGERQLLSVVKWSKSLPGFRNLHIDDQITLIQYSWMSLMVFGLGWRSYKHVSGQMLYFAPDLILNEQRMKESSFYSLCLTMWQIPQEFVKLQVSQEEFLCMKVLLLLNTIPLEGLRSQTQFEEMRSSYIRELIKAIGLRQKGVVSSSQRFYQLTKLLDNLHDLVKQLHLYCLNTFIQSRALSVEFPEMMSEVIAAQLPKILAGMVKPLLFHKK
In short: (§1)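 SK-N-MC neuroblastoma cells stably expressing human PR-A or PR-B plus MMTV-LUC reporter, treated 24 h with compound (0.01 nmol/l upward). Antagonism measured against 0.1 nmol/l promegestone; luciferase in lysates as RLU, given as % efficacy and IC50 (agonism as EC50).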

pregnant rats = experiment: Abortion test on female rats; assay type: in vivo; details: d5-d7 p.c., autopsy d9 p.c.
Procedure: Abortion Test on Female Rats
The action of progesterone and of the progesterone receptor is a fundamental precondition for successful pregnancy or gestation in mammals. The progesterone-antagonistic action of the inventive compounds was tested on pregnant rats (6 rats per group) on days 5 to 7 post coitum under conventional housing and feeding conditions.
After successful mating, the pregnant animals (presence of sperm in the vaginal smear on day 1 of pregnancy=d1 p.c.) were randomized and divided into the treatment group and the control group. The animals then each received subcutaneously or orally 0.15; 0.5; 1.5 or 5 mg/kg of the test compound or 1.0 ml/kg of vehicle (benzyl benzoate/castor oil: 1+4 [v/v]) daily from day 5 to day 7 (d5−d7 p.c.).
Autopsy was conducted on day 9 (d9 p.c.). As a characteristic of progesterone receptor-antagonistic action, the uterus was examined for the presence of nidation sites. Complete absence, or else the presence of pathological, haemorrhagic or otherwise abnormal nidation sites, on day 9 (d9 p.c.) was considered as abortion.

[2] = Solubility in aqueous medium at pH 7.4; assay type: physicochemical; details: for solubility: aqueous medium, pH 7.4, aqueous buffer
[3] = biological target: T2, human progesterone receptor A (Homo sapiens, UniProt P06401); experiment: Progesterone receptor-antagonistic action in stably transfected SK-N-MC cells, PR-A, MMTV-LUC reporter; assay type: cell-based; details: read-out: IC50 PR-A
T2 construct: expressed in transfected cells; host or cells: SK-N-MC human neuroblastoma cells, stably transfected with pRChPR-A-neo and pMMTV-LUC
T2 sequence (P06401 1-769 isoform P06401-2): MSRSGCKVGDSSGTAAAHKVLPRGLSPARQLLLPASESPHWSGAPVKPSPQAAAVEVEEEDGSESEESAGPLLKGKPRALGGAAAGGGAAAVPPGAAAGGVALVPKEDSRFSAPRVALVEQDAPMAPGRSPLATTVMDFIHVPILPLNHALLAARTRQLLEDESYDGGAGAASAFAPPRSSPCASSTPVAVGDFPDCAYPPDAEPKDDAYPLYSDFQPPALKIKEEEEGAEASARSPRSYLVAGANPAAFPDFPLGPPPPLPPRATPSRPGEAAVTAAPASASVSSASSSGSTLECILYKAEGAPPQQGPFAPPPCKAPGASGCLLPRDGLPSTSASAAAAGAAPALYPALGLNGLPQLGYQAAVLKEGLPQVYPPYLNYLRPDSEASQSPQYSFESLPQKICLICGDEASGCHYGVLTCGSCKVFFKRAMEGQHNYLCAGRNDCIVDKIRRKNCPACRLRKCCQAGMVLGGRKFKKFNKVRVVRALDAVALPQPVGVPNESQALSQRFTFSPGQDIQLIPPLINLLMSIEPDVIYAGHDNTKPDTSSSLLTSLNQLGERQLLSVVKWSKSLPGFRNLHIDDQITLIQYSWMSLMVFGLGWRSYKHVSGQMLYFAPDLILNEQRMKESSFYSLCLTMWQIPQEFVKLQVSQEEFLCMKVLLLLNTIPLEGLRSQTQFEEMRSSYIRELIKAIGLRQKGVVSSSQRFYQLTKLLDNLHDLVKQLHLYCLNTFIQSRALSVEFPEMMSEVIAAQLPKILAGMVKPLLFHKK
In short: as §1

[4] = Metabolic stability in human liver microsomes; assay type: in vitro ADME; details: for Predicted clearance Human: predicted in vivo clearance from liver microsomes, well-stirred model, 1 μM; for Predicted Fmax (maximum oral bioavailability) Human: calculated from liver microsome data
Procedure: (§2) Determination of Metabolic Stability in Human and Rat Liver Microsomes
Isolated Human Liver Microsomes (HLM) were Used to Assess the Metabolic Stability of compounds of general formula I.
(§3) The incubations were conducted with 2.4 ml of HLM solution (protein content 0.5 mg/ml), 30 μl of the test compound (final concentration 1 μM) and 0.6 ml of the cofactor mixture (═NADPH-generating system composed of 3 IU glucose-6-phosphate dehydrogenase, 14.6 mg glucose-6-phosphate, 1.2 mg NADP) at 37° C. in 100 mM phosphate buffer at pH 7.4. Samples were taken at 6 time points (2-60 min) and precipitated with an equal volume of methanol, and the recovery of the test substances used in the supernatant was determined by LC-MS/MS analysis. The half-life of substance degradation determined therefrom was used to calculate what is called the intrinsic clearance of the substance in the liver microsome preparation.

[5] = Clearance and half-life after intravenous administration in rats; assay type: in vivo; details: i.v. bolus 0.3-0.5 mg/kg; for CLblood: female rats
[6] = Metabolic stability in rat liver microsomes; assay type: in vitro ADME
Procedure: as §2, §3

IC50 [1]: 110 pM
solubility [2]: 13 µg/mL (≈ 25 µM)
IC50 [3]: 97 pM
Predicted clearance Human [4]: 5.33 mL/min/kg
Structure (SMILES): C[C@]12C[C@H](c3ccc(C#CCO)cc3)C3=C4CCC(=O)C=C4CC[C@H]3[C@@H]1CC[C@@]2(O)C(F)(F)C(F)(F)F [Example 1, (8S,11R,13S,14S,17S)-17-hydroxy-11-[4-(3-hydroxyprop-1-yn-1-yl)phenyl]-13-methyl-17-pentafluoroethyl-1,2,6,7,8,11,12,13,14,15,16,17-dodecahydrocyclopenta[a]phenanthren-3-one]
Abortion rate (pregnant rats; daily dose 0.5 mg/kg p.o.): 100%
Abortion rate (pregnant rats; daily dose 1.5 mg/kg p.o.): 100%
Abortion rate (pregnant rats; daily dose 5.0 mg/kg p.o.): 100%

IC50 [1]: 100 pM
solubility [2]: 8 µg/mL (≈ 14.8 µM)
CLblood [5]: 55 ± 21.7 mL/min/kg
half-life ([5]; female, rat, plasma, iv, read-out: t1/2 (terminal half-life)): ≥ 1 h
IC50 [3]: 200 pM
Predicted clearance Human [4]: 1.5 mL/min/kg
Structure (SMILES): C[C@]12C[C@H](c3ccc(C#C/C=C/C#N)cc3)C3=C4CCC(=O)C=C4CCC3C1CC[C@@]2(O)C(F)(F)C(F)(F)F (stereo partly drawn) [Example 4, (E)-5-[4-((8S,11R,13S,14S,17S)-17-hydroxy-13-methyl-3-oxo-17-pentafluoroethyl-2,3,6,7,8,11,12,13,14,15,16,17-dodecahydro-1H-cyclopenta[a]phenanthren-1′-yl)phenyl]pent-2-en-4-ynenitrile]

IC50 [1]: 300 pM
solubility [2]: 17 µg/mL (≈ 34.2 µM)
predicted maximum bioavailability in rats (in words) [6]: good
IC50 [3]: 400 pM
Predicted Fmax (maximum oral bioavailability) Human [4]: 42%
Predicted clearance Human [4]: 12 mL/min/kg
Structure (SMILES): C[C@]12C[C@H](c3ccc(CO)cc3)C3=C4CCC(=O)C=C4CC[C@H]3[C@@H]1CC[C@@]2(O)C(F)(F)C(F)(F)F [Ref. 1*, (8S,11R,13S,14S,17S)-17-hydroxy-11-[4-(hydroxymethyl)phenyl]-13-methyl-17-pentafluoroethyl-1,2,6,7,8,11,12,13,14,15,16,17-dodecahydrocyclopenta[a]phenanthren-3-one, reference compound]

Continued, molecule first:

Structure (SMILES): C[C@]12C[C@H](c3ccc(C#Cc4ccc(C(=O)O)cc4)cc3)C3=C4CCC(=O)C=C4CC[C@H]3[C@@H]1CC[C@@]2(O)C(F)(F)C(F)(F)F [Example 16, 4-[4-((8S,11R,13S,14S,17S)-17-hydroxy-13-methyl-3-oxo-17-pentafluoroethyl-2,3,6,7,8,11,12,13,14,15,16,17-dodecahydro-1H-cyclopenta[a]phenanthren-11-yl)phenylethynyl]benzoic acid]
IC50 [1]: 50 pM
Abortion rate (pregnant rats; daily dose 0.5 mg/kg p.o.): 0%
Abortion rate (pregnant rats; daily dose 1.5 mg/kg p.o.): 16.7%
Abortion rate (pregnant rats; daily dose 5.0 mg/kg p.o.): 100%
solubility (in words) ([2]; aqueous medium under physiological conditions): improved solubility
solubility [2]: 204 µg/mL (≈ 334 µM)
CLblood [5]: 35 ± 8.3 mL/min/kg
IC50 [3]: 100 pM
Predicted clearance Human [4]: 5.5 mL/min/kg

Structure (SMILES): C[C@]12C[C@H](c3ccc(C#CCNC(=O)Nc4ccc(F)cc4)cc3)C3=C4CCC(=O)C=C4CC[C@H]3[C@@H]1CC[C@@]2(O)C(F)(F)C(F)(F)F [Example 36, 1-{3-[4-((8S,11R,13S,14S,17S)-17-hydroxy-13-methyl-3-oxo-17-pentafluoroethyl-2,3,6,7,8,11,12,13,14,15,16,17-dodecahydro-1H-cyclopenta[a]phenanthren-11-yl)phenyl]prop-2-ynyl}-3-(4-fluorophenyl)urea]
IC50 [1]: 200 pM
solubility [2]: 4 µg/mL (≈ 6.09 µM)
IC50 [3]: 100 pM
Predicted Fmax (maximum oral bioavailability) Human [4]: 55%
Predicted clearance Human [4]: 10 mL/min/kg
